In patent US12396471B2, “Composition containing sesamin and PQQ” (SUNTORY HOLDINGS LIMITED, priority 2019, dated 2025):

Test system: TIG-3 cells
Test: Evaluation test of mitochondrial function: amount of ATP production (decrease in oxygen consumption rate by oligomycin) after H2O2 treatment
Format: cell-based
Settings: for Measured value: amount of ATP production (amount of decrease in oxygen consumption rate by the ATP synthase inhibitor): TIG-3 cells cultured 24 h with test substance, then H2O2 800 μM for two hours, XF analyzer, concentrations of SE and PQQ·2Na per example; for Recovery rate (%) from Comparative Example 1: measured value divided by that of Comparative Example 1 (H2O2 800 μM only) x 100
Experimental: To examine mitochondrial function, TIG-3 cells at 5.5×10^3 cells/well were seeded onto cell culture plates, and cultured at 37° C. with CO2 (5%) for 24 hours. After 24 hours of culturing, compositions each containing a sesamin-episesamin mixture and PQQ were added to the media in the wells at the respective concentrations shown in Table 1 below, and cultured for 24 hours. Subsequently, the media containing the sesamin-episesamin mixture and the PQQ were removed, and the cells in the wells were treated with media containing H2O2 (800 μM) for two hours. Subsequently, each medium was replaced with an analysis medium, and the oxygen consumption rate was analyzed using an analyzer (XF analyzer, Agilent Technologies Japan, Ltd.). After completion of analysis, the nuclei were stained with Hoechst, and the cells were photographed by a fluorescence microscope “BZ-x” (Keyence Corporation). The number of cells was counted by image analysis. The amount of ATP production was the amount of decrease in oxygen consumption rate by the ATP synthase inhibitor (oligomycin).
To examine mitochondrial function, TIG-3 cells at 5.5×10^3 cells/well were seeded onto a dedicated plate, and cultured at 37° C. with CO2 (5%) for 24 hours. The cells were further cultured for 26 hours without adding a sesamin-episesamin mixture and a composition containing PQQ to the medium 24 hours after the first culturing and without treating cells in the well with a medium containing H2O2 (800 μM) for two hours. Then, the oxygen consumption rate in Reference Example 1 was analyzed and the number of cells was counted as in Example 1, except for the differences described above. The amount of ATP production was also measured.
To examine mitochondrial function, TIG-3 cells at 5.5×10^3 cells/well were seeded onto a dedicated plate, and cultured at 37° C. with CO2 (5%) for 24 hours. The cells were further cultured for 24 hours without adding a sesamin-episesamin mixture and a composition containing PQQ to the medium 24 hours after the first culturing. Then, the oxygen consumption rate in Comparative Example 1 was analyzed and the number of cells was counted as in Example 1, except for the differences described above. The amount of ATP production was also measured.
To examine mitochondrial function, TIG-3 cells at 5.5×10^3 cells/well were seeded onto a dedicated plate, and cultured at 37° C. with CO2 (5%) for 24 hours. After 24 hours of culturing, a sesamin-episesamin mixture or PQQ was added to each medium in the wells at the corresponding concentration shown in Table 1 below, and cultured for 24 hours. Except what is described above, the oxygen consumption rate in each of Comparative Examples 2 to 9 was analyzed, and the number of cells was counted as in Example 1. The amount of ATP production was measured.
In Table 1, values in “Measured value” (pmol/min/10^3 cells) show the amount of ATP production (the amount of decrease in oxygen consumption rate by the ATP synthase inhibitor) determined above.
Values in “Recovery rate (%) from Comparative Example 1” are each obtained by dividing a measured value in one example or comparative example by the measured value of Comparative Example 1 and multiplying the resulting value with 100. A higher recovery rate means a larger amount of ATP production. […] In FIG. 1, “SE” indicates the sesamin-episesamin mixture.

Row | Structure (SMILES) | Measured value: amount of ATP production (amount of decrease in oxygen consumption rate by the ATP synthase inhibitor) | decline in the amount of ATP production compared to the H2O2-treated group according to Comparative Example 1 (TIG-3 cells, H2O2 800 μM) | Recovery rate (%) from Comparative Example 1 (TIG-3 cells) | increase in the amount of ATP production compared to the H2O2-treated group according to Comparative Example 1 (TIG-3 cells, H2O2 800 μM)
1 | O=C([O-])c1cc(C(=O)[O-])c2c(n1)C(=O)C(=O)c1cc(C(=O)O)[nH]c1-2.[Na+].[Na+] [Comparative Example 5, PQQ·2Na] | 6.06 pmol/min/10^3 cells | 5.5% | 94.5% | –
2 | O=C([O-])c1cc(C(=O)[O-])c2c(n1)C(=O)C(=O)c1cc(C(=O)O)[nH]c1-2.[Na+].[Na+] [Comparative Example 6, PQQ·2Na] | 6.49 pmol/min/10^3 cells | – | 101.1% | 1.1%
3 | O=C([O-])c1cc(C(=O)[O-])c2c(n1)C(=O)C(=O)c1cc(C(=O)O)[nH]c1-2.[Na+].[Na+] [Comparative Example 7, PQQ·2Na] | 6.71 pmol/min/10^3 cells | – | 104.6% | 4.6%
4 | O=C([O-])c1cc(C(=O)[O-])c2c(n1)C(=O)C(=O)c1cc(C(=O)O)[nH]c1-2.[Na+].[Na+] [Comparative Example 8, PQQ·2Na] | 7.40 pmol/min/10^3 cells | – | 115.3% | 15.3%
5 | O=C([O-])c1cc(C(=O)[O-])c2c(n1)C(=O)C(=O)c1cc(C(=O)O)[nH]c1-2.[Na+].[Na+] [Comparative Example 9, PQQ·2Na] | 7.56 pmol/min/10^3 cells | – | 117.8% | 17.8%
